Assay results reported in patent publication US8106055B2, “Substituted amide compounds” (Gruenenthal GmbH, priority 2007, dated 2012).

Key:
[1] = target: T1, serotonin (5-HT) reuptake (Rattus norvegicus, UniProt P31652); assay: Inhibition of serotonin (5HT) reuptake in synaptosomes from rat brain; type: biochemical; details: test concentration of 10 μM; read-out: 5-HT (inhibition of reuptake of serotonin, % inhibition)
T1 construct: synaptosomes are freshly isolated from areas of the rat brain; from tissue; host or cells: rat brain synaptosomes (P2 fraction)
T1 sequence (P31652 whole entry): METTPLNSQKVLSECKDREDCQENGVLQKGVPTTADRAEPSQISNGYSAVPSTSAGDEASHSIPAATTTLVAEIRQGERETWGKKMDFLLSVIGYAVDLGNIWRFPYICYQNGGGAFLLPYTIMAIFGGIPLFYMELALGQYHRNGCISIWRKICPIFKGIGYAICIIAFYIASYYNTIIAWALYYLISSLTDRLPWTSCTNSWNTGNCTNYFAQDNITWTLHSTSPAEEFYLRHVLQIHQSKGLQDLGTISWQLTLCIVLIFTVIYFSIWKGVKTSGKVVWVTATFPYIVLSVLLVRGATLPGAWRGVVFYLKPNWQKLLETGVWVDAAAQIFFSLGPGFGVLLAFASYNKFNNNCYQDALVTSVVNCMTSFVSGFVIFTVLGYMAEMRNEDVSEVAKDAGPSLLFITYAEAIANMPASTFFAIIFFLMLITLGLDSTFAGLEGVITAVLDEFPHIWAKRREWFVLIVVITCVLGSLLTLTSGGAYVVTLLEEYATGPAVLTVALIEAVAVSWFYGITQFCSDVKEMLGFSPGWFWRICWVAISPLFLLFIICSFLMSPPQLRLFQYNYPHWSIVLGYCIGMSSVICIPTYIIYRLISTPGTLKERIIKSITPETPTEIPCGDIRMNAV
In short: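 Compounds screened at 10 μM and reported as percent inhibition of serotonin uptake. Uptake measured in a freshly prepared P2 synaptosomal fraction from rat brain.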

human μ opiate receptor = target: T2, human μ opiate receptor (Homo sapiens, UniProt P35372); assay: Affinity for the human μ opiate receptor ([3H]-naloxone displacement, CHO-K1 receptor membrane preparation, SPA); type: binding; details: test concentration of 1 μM; read-out: μ (binding on the μ opioid receptor, % inhibition)
T2 construct: purchased PerkinElmer Life Sciences, Zaventem, Belgium RB-HOM; host or cells: CHO-K1 cells (membrane preparation)
T2 sequence (P35372 whole entry): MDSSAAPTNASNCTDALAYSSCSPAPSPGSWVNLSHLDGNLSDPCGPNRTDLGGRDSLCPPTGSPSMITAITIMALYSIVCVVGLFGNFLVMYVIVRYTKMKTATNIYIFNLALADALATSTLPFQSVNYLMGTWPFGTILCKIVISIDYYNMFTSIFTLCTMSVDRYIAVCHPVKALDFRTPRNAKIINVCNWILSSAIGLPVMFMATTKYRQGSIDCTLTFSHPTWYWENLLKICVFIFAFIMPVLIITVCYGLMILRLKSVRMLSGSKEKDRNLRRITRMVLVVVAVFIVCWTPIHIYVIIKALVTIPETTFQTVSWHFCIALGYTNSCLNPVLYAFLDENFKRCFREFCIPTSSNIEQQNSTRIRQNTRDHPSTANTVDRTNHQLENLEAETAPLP
In short: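 Test compounds, 1 nmol/l [3H]-naloxone and CHO-K1 membranes bearing the human μ opiate receptor are combined with WGA-SPA beads. After 90 minutes at room temperature, plates are centrifuged and radioactivity counted. Specific-binding inhibition at 1 μmol/l is given in percent.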

Row | SMILES | inhibition at 10 µM [1] | inhibition at 1 µM (human μ opiate receptor)
1 | Cc1cc(C)c(S(=O)(=O)N2CCC(OCC(=O)NCC3CCC(C(c4cccs4)N(C)C)CC3)C2)c(C)c1 (stereo not shown) [Example 27, N-((4-((dimethylamino)(thiophen-2-yl)methyl)cyclohexyl)methyl)-2-(1-(mesitylsulfonyl)pyrrolidin-3-yloxy)acetamide] | 84% | 97%
2 | COc1ccc(S(=O)(=O)N2CCCC2COCC(=O)NC2CCC(C(c3cccs3)N(C)C)CC2)cc1 (stereo not shown) [Example 162, N-(4-((dimethylamino)(thiophen-2-yl)methyl)cyclohexyl)-2-((1-(4-methoxyphenylsulfonyl)pyrrolidin-2-yl)methoxy)acetamide] | 81% | 86%
3 | CN(C)C(c1cccs1)C1CCC(NC(=O)COCCN(C)S(=O)(=O)c2ccc(F)cc2)CC1 (stereo not shown) [Example 10, N-(4-((dimethylamino)(thiophen-2-yl)methyl)cyclohexyl)-2-(2-(4-fluoro-N-methylphenylsulfonamido)ethoxy)acetamide] | 76% | 98%
4 | COc1cc(C)c(S(=O)(=O)N2CCCC(OCC(=O)NCC3CCC(C(c4ccccc4)N(C)C)CC3)C2)c(C)c1C (stereo not shown) [Example 29, N-((4-((dimethylamino)(phenyl)methyl)cyclohexyl)methyl)-2-(1-(4-methoxy-2,3,6-trimethylphenylsulfonyl)piperidin-3-yloxy)acetamide] | 93% | 97%
5 | Cc1ccc(S(=O)(=O)N2CCC(OCC(=O)NC3CCC(C(c4cccc(F)c4)N(C)C)CC3)C2)cc1 (stereo not shown) [Example 167, N-(4-((dimethylamino)(3-fluorophenyl)methyl)cyclohexyl)-2-(1-tosylpyrrolidin-3-yloxy)acetamide] | 86% | 82%
6 | CN(C)C(c1cccs1)C1CCC(CNC(=O)COC2CCN(S(=O)(=O)c3cccc(C(F)(F)F)c3)C2)CC1 (stereo not shown) [Example 25, N-((4-((dimethylamino)(thiophen-2-yl)methyl)cyclohexyl)methyl)-2-(1-(3-(trifluoromethyl)phenylsulfonyl)pyrrolidin-3-yloxy)acetamide] | 82% | 97%
7 | COc1cc(C)c(S(=O)(=O)N2CCN(CCOCC(=O)NC3CCC(C(c4ccccc4)N(C)C)CC3)CC2)c(C)c1C (stereo not shown) [Example 20, N-(4-((dimethylamino)(phenyl)methyl)cyclohexyl)-2-(2-(4-(4-methoxy-2,3,6-trimethylphenylsulfonyl)piperazin-1-yl)ethoxy)acetamide] | 96% | 97%
8 | COc1cc(C)c(S(=O)(=O)N2CCC(OCC(=O)NC3CCC(C(c4ccccc4)N(C)C)CC3)C2)c(C)c1 (stereo not shown) [Example 165, N-(4-((dimethylamino)(phenyl)methyl)cyclohexyl)-2-(1-(4-methoxy-2,6-dimethylphenylsulfonyl)pyrrolidin-3-yloxy)acetamide] | 20% | 87%
9 | CN(C)C(c1cccc(F)c1)C1CCC(CCNC(=O)COCCN(C)S(=O)(=O)c2cccc(C(F)(F)F)c2)CC1 (stereo not shown) [Example 192, N-(2-(4-((dimethylamino)(3-fluorophenyl)methyl)cyclohexyl)ethyl)-2-(2-(N-methyl-3-(trifluoromethyl)phenylsulfonamido)ethoxy)acetamide] | 94% | 88%
10 | CN(C)C(c1cccc(F)c1)C1CCC(CNC(=O)COCCN(C)S(=O)(=O)c2c(Cl)cc(Cl)cc2Cl)CC1 (stereo not shown) [Example 188, N-((4-((dimethylamino)(3-fluorophenyl)methyl)cyclohexyl)methyl)-2-(2-(2,4,6-trichloro-N-methylphenylsulfonamido)ethoxy)acetamide] | 98% | 87%
11 | CN(C)C(c1cccc(F)c1)C1CCC(CNC(=O)COCCN(C)S(=O)(=O)c2ccc(Cl)cc2)CC1 (stereo not shown) [Example 158, 2-(2-(4-chloro-N-methylphenylsulfonamido)ethoxy)-N-((4-((dimethylamino)(3-fluorophenyl)methyl)cyclohexyl)methyl)acetamide] | 91% | 87%
12 | CN(C)C(c1ccccc1)C1CCC(CNC(=O)COC2CCN(S(=O)(=O)c3ccccc3)C2)CC1 (stereo not shown) [Example 195, N-((4-((dimethylamino)(phenyl)methyl)cyclohexyl)methyl)-2-(1-(phenylsulfonyl)pyrrolidin-3-yloxy)acetamide] | 101% | 83%
13 | COc1cc(C)c(S(=O)(=O)N2CCC(OCC(=O)NC3CCC(C(c4cccc(F)c4)N(C)C)CC3)C2)c(C)c1C (stereo not shown) [Example 189, N-(4-((dimethylamino)(3-fluorophenyl)methyl)cyclohexyl)-2-(1-(4-methoxy-2,3,6-trimethylphenylsulfonyl)pyrrolidin-3-yloxy)acetamide] | 96% | 84%
14 | CN(C)C(c1cccc(F)c1)C1CCC(CCNC(=O)COCCN(C)S(=O)(=O)c2c(Cl)cc(Cl)cc2Cl)CC1 (stereo not shown) [Example 174, N-(2-(4-((dimethylamino)(3-fluorophenyl)methyl)cyclohexyl)ethyl)-2-(2-(2,4,6-trichloro-N-methylphenylsulfonamido)ethoxy)acetamide] | 97% | 90%
15 | COc1cc(C)c(S(=O)(=O)N2CCCC(OCC(=O)NC3CCC(C(c4cccs4)N(C)C)CC3)C2)c(C)c1C (stereo not shown) [Example 144, N-(4-((dimethylamino)(thiophen-2-yl)methyl)cyclohexyl)-2-(1-(4-methoxy-2,3,6-trimethylphenylsulfonyl)piperidin-3-yloxy)acetamide] | 87% | 89%
16 | CN(C)C(c1ccccc1)C1CCC(CNC(=O)COCCN(Cc2ccccc2)S(=O)(=O)c2ccccc2)CC1 (stereo not shown) [Example 15, 2-(2-(N-benzylphenylsulfonamido)ethoxy)-N-((4-((dimethylamino)(phenyl)methyl)cyclohexyl)methyl)acetamide] | 99% | 98%
17 | CN(C)C(c1cccs1)C1CCC(NC(=O)COC2CCN(S(=O)(=O)c3ccc(F)cc3)C2)CC1 (stereo not shown) [Example 28, N-(4-((dimethylamino)(thiophen-2-yl)methyl)cyclohexyl)-2-(1-(4-fluorophenylsulfonyl)pyrrolidin-3-yloxy)acetamide] | 76% | 97%
18 | CN(C)C(c1cccc(F)c1)C1CCC(NC(=O)COCCN(C)S(=O)(=O)c2ccc(Cl)cc2)CC1 (stereo not shown) [Example 196, 2-(2-(4-chloro-N-methylphenylsulfonamido)ethoxy)-N-(4-((dimethylamino)(3-fluorophenyl)methyl)cyclohexyl)acetamide] | 92% | 81%
19 | COc1ccc(S(=O)(=O)N2CCCC2COCC(=O)NC2CCC(C(c3ccccc3)N(C)C)CC2)cc1 (stereo not shown) [Example 182, N-(4-((dimethylamino)(phenyl)methyl)cyclohexyl)-2-((1-(4-methoxyphenylsulfonyl)pyrrolidin-2-yl)methoxy)acetamide] | 85% | 82%
20 | COc1ccc(S(=O)(=O)N2Cc3ccccc3CC2COCC(=O)NCC2CCC(C(c3cccc(F)c3)N(C)C)CC2)cc1 (stereo not shown) [Example 163, N-((4-((dimethylamino)(3-fluorophenyl)methyl)cyclohexyl)methyl)-2-((2-(4-methoxyphenylsulfonyl)-1,2,3,4-tetrahydroisoquinolin-3-yl)methoxy)acetamide] | 96% | 87%
21 | COc1cc(C)c(S(=O)(=O)N(C)CCOCC(=O)NCCC2CCC(C(c3cccc(F)c3)N(C)C)CC2)c(C)c1C (stereo not shown) [Example 183, N-(2-(4-((dimethylamino)(3-fluorophenyl)methyl)cyclohexyl)ethyl)-2-(2-(4-methoxy-N,2,3,6-tetramethylphenylsulfonamido)ethoxy)acetamide] | 93% | 83%
22 | COc1cc(C)c(S(=O)(=O)N2CCC(CCOCC(=O)NC3CCC(C(c4ccc(F)cc4)N(C)C)CC3)CC2)c(C)c1C (stereo not shown) [Example 178, N-(4-((dimethylamino)(4-fluorophenyl)methyl)cyclohexyl)-2-(2-(1-(4-methoxy-2,3,6-trimethylphenylsulfonyl)piperidin-4-yl)ethoxy)acetamide] | 94% | 81%
23 | Cc1cc(C)c(S(=O)(=O)N2CCC(OCC(=O)NC3CCC(C(c4cccs4)N(C)C)CC3)C2)c(C)c1 (stereo not shown) [Example 12, N-(4-((dimethylamino)(thiophen-2-yl)methyl)cyclohexyl)-2-(1-(mesitylsulfonyl)pyrrolidin-3-yloxy)acetamide] | 79% | 98%
24 | CCN(CCOCC(=O)NC1CCC(C(c2cccc(F)c2)N(C)C)CC1)S(=O)(=O)c1c(C)cc(OC)c(C)c1C (stereo not shown) [Example 176, N-(4-((dimethylamino)(3-fluorophenyl)methyl)cyclohexyl)-2-(2-(N-ethyl-4-methoxy-2,3,6-trimethylphenylsulfonamido)ethoxy)acetamide] | 90% | 87%
25 | COc1ccc(S(=O)(=O)N2CCCCC2COCC(=O)NCCC2CCC(C(c3cccc(F)c3)N(C)C)CC2)cc1 (stereo not shown) [Example 180, N-(2-(4-((dimethylamino)(3-fluorophenyl)methyl)cyclohexyl)ethyl)-2-((1-(4-methoxyphenylsulfonyl)piperidin-2-yl)methoxy)acetamide] | 93% | 90%
26 | Cc1ccc(S(=O)(=O)N(C)CCOCC(=O)NCC2CCC(C(c3ccccc3)N(C)C)CC2)cc1 (stereo not shown) [Example 157, N-((4-((dimethylamino) (phenyl)methyl)cyclohexyl)methyl)-2-(2-(N,4-dimethylphenylsulfonamido)ethoxy)acetamide] | 88% | 87%
